Laboratory results reported in patent US20210330611A1, “THERAPY FOR NEUROLOGICAL DISEASES/DISORDERS” (priority 2020, published 2021).

Tests used:
mouse BMDMs = experiment: ROS production (DHE) in fibrin-stimulated mouse BMDMs; assay type: cell-based; details: fibrin 24 h, 5 μM inhibitor, FIG. 6b
Protocol: Bone marrow—derived macrophage cultures. […]. In brief, bone-marrow cells were isolated from tibia and femur of C57BL/6 mice, Ggt1^+/+ mice or Ggt1^dwg/dwg mice and cultured in RPMI-1640 medium supplemented with 10% FBS, 1% penicillin-streptomycin (Corning), and 10 ng/ml murine M-CSF (14-8983-80, Thermo Fisher Scientific). On days 6-7, adherent BMDMs were harvested by adding PBS with 5 mM EDTA to the plates and used for assays.
Human macrophage cultures. Human peripheral blood mononuclear cells (PBMCs) were purchased from AllCells, LLC (Alameda, Calif.). To differentiate PBMC into monocyte-derived macrophages, 2×10^6 PBMC/mL were plated in RPMI-1640 media supplemented with 10% FBS, 1% penicillin-streptomycin (Corning), and 50 ng/ml human M-CSF (300-25, Peprotech) in tissue-culture treated dishes (Corning). After 24 h, non-adherent cells were removed, and adherent cells were cultivated for 7-8 additional days at 37° C. in 5% CO2 to promote their full differentiation into macrophages. Oxidant detection with DHE. Intracellular concentrations of ROS were measured using dihydroethidium (DHE) as described (9). […] The DHE fluorescence was detected at an excitation/emission wavelength of 518 nm/605 nm using a SpectraMax M5 microplate reader (Molecular Devices) with SoftMax Pro 5.2 software (Phoenix Technologies Ltd.).

BMDMs = assay type: cell-based, mouse; details: 24 h, FIG. 12
Protocol: FIGS. 12A-E. Effects of acivicin on microglia, macrophage and whole blood cell numbers. a, Representative images showing morphology and density of primary microglia treated with vehicle or acivicin for 48 h stained with nuclei marker Hoechst or CellMask Red Whole Cell Stain. Quantification of the total number of microglia. Data are representative of one experiment with technical replicates (open symbols). b, Representative confocal images showing morphology and density of control- and acivicin-treated BMDMs treated for 24 h. Scale bar, 100 μm. Insets depict digitally zoomed in areas of regions of interest. Quantification of the total number of BMDMs in the field of view. […] Cell viability of single CD45^+ cells was assessed by Sytox blue live/dead nuclei stain. Quantification of percent cell viability of CD45^+ BMDMs treated with acivicin or left untreated. Data are from 2 independent experiments with n=4 mice per group (mean±s.d.). d, Quantification of complete blood count analysis of white blood cells (WBCs), red blood cells (RBC), platelets (PLT) (left) and composition of WBCs (right) of blood samples from healthy mice treated with saline or acivicin for 10 days. […] Quantification of total microglia cell numbers in healthy mice treated with acivicin or saline. […]

[1] = system: LPS injection in the substantia nigra; experiment: LPS-induced neurodegeneration in substantia nigra, TH and Iba-1 immunohistochemistry; assay type: in vivo, mouse
Protocol: Stereotactic LPS injection and drug treatment. Mice were anaesthetized with isoflurane and placed in a stereotactic apparatus (David Kopf Instruments). LPS (Sigma-Aldrich) was dissolved in endotoxin-free distilled water (HyClone) and was diluted to 1 μg/ml with PBS. LPS (2 μl of 1 μg/ml) or PBS was slowly injected (0.3 μl/min) using a 10-μl Hamilton syringe attached to a 33-G needle into the substantia nigra at coordinates (anteroposterior, 3.0 mm; mediolateral, 1.3 mm; dorsoventral, 4.7 mm from the bregma, according to Paxinos and Watson) Animals received acivicin (5 mg/kg) or saline intraperitoneally beginning 5 days before LPS injection and for 7 days after LPS injection. After 12 h of the LPS injection, the substantia nigra area was immediately collected on ice and kept at −80° C. for later analysis of GGT activity. After 7 d of the LPS injection, mice were perfused with 4% PFA, and the brains were post-fixed in 4% PFA overnight at 4° C. […] Images were acquired with all-in-one BZ-X700 fluorescence microscope. Images were quantified using NIH ImageJ (version 1.50) by blinded observers.

[2] = cited from earlier work

## N[C@H](C(=O)O)[C@@H]1CC(Cl)=NO1 [Acivicin, (2S)-2-amino-2-[(5S)-3-chloro-4,5-dihydro-1,2-oxazol-5-yl] acetic acid]
Mouse BMDMs
  ROS generation (DHE) in mouse macrophages: decreased
BMDMs
  macrophage cell number in vitro: did not affect
[1]; 7 d after LPS, FIG. 15c
  microglial activation (Iba-1): decreased
[1]; mouse, in vivo
  dopaminergic neuronal survival (TH): improved
[2]
  toxicity in anti-cancer trials: dose limiting toxicity
